pIC50: −log10 of the molar value.
Target: T1, hYAK3 (Homo sapiens, UniProt O43781)
T1 construct: GST (N); His6 (C); made in house; host or cells: baculovirus expression system in Sf9 cells
T1 sequence (O43781 124-526): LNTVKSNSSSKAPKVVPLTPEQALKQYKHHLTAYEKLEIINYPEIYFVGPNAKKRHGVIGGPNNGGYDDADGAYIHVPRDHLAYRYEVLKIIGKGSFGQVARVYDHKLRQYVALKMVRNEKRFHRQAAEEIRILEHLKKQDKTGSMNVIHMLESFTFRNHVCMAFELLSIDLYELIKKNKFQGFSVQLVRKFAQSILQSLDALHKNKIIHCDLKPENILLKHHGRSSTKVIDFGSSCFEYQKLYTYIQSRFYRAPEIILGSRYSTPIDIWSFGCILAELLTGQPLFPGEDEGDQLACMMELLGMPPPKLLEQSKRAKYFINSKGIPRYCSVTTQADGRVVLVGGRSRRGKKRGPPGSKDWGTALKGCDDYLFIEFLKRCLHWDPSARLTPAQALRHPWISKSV
Assay: YAK3 Scintillation Proximity Assay using Ser164 of myelin basic protein as the phosphoacceptor (kinase assay of purified hYAK3)
Format: biochemical
Conditions: purified GST-hYak3-His6 (aa 124-526), 4 nM; 0.001 mM ATP; 4 μM Ser164 peptide; 2 hours at room temperature; pIC50 = −log10(IC50)
Protocol: Substrate phosphorylation assays were carried out as follows:
YAK3 Scintillation Proximity Assays Using Ser164 of Myelin Basic Protein as the Phosphoacceptor
The source of Ser164 substrate peptide The biotinylated Ser164, S164A peptide(Biotinyl-LGGRDSRAGS*PMARR-OH), sequence derived from the C-terminus of bovine myelin basic protein (MBP) with Ser162 substituted as Ala 162, was purchased from California Peptide Research Inc. (Napa, Calif.), and its purity was determined by HPLC. Phosphorylation occurs at position 164 (marked S* above). The calculated molecular mass of the peptide was 2166 dalton. Solid sample was dissolved at 10 mM in DMSO, aliquoted, and stored at −20° C. until use.
hYAK3: Glutathione-S-Transferase (GST)-hYak3-His6 containing amino acid residues 124-526 of human YAK3 (aa 124-526 of SEQ ID NO 2. in U.S. Pat. No. 6,323,318) was purified from baculovirus expression system in Sf9 cells using Glutathione Sepharose 4B column chromatography followed by Ni-NTA-Agarose column chromatography. Purity greater than 65% typically was achieved. Samples, in 50 mM Tris, 150 mM NaCl, 10% glycerol, 0.1% Triton, 250 mM imidazole, 10 mM β-mercapto ethanol, pH 8.0. were stored at −80° C. until use.
Kinase assay of purified hYAK3: Assays were performed in 96 well (Costar, Catalog No. 3789) or 384 well plates (Costar, Catalog No. 3705). Reaction (in 20, 25, or 40 μl volume) mix contained in final concentrations 25 mM Hepes buffer, pH 7.4; 10 mM MgCl2; 10 mM β-mercapto ethanol; 0.0025% Tween-20; 0.001 mM ATP, 0.1 μCi of [γ-^33P]ATP; purified hYAK3 (7-14 ng/assay; 4 nM final); and 4 μM Ser164 peptide. Compounds, titrated in DMSO, were evaluated at concentrations ranging from 50 μM to 0.5 nM. […] Reactions were incubated for 2 hours at room temperature and were stopped by a 75 ul addition of […] Streptavidin Scintillation Proximity beads (Amersham Pharmacia Biotech, Catalog No. RPNQ 0007) in PBS, pH 7.4, 10 mM EDTA, 0.1% Triton X-100, 1 mM ATP. Under the assay conditions defined above, the Km(apparent) for ATP was determined to be 7.2+/−2.4 μM.

pIC50	Structure (SMILES)
6.00 to 6.99	Cn1c(C(C)(C)C)nc2ccc(/C=C3\SC(Nc4ccccc4Cl)=NC3=O)cc21 [Example 53, (5Z)-2-[(2-Chlorophenyl)amino]-5-{[2-(1,1-dimethylethyl)-1-methyl-1H-benzimidazol-6-yl]methylidene}-1,3-thiazol-4(5H)-one]
7.00 to 7.99	CN(C)CCn1nnc2ccc(/C=C3\SC(Nc4c(Cl)cccc4Cl)=NC3=O)cc21 [Example 58, (5Z)-2-[(2,6-dichlorophenyl)amino]-5-({1-[2-(dimethylamino)ethyl]-1H-1,2,3-benzotriazol-6-yl}methylidene)-1,3-thiazol-4(5H)-one]
8.00 to 8.99	Cc1nc2ccc(C=C3SC(=Nc4c(Cl)cccc4Cl)NC3=O)cc2o1 [Example 59, 2-(2,6-Dichloro-phenylimino)-5-(2-methyl-benzooxazol-6-yl-methylene)-thiazolidin-4-one]

From patent US20070249599A1, “Novel Chemical Compounds” (priority 2004, published 2007)
